Among the data in US20070141276A1, “Novel 14 and 15 membered ring compounds” (priority 2003, published 2007) are MIC values, retold here.

Common to all, as to assay: MIC, broth dilution method in microtitre
One experiment concerns H. influenzae ATCC 49247. The class given is cell-based, Haemophilus influenzae. The protocol: (§1) Using a standard broth dilution method in microtitre, compounds were tested for antibacterial activity. The compounds in the above examples gave minimum inhibitory concentrations (MICs) less than 1 microgram per millilitre against erythromycin-sensitive and erythromycin-resistant strains of Streptococcus pneumoniae and Streptococcus pyogenes.
(§2) In addiffon, the MIC (μg/mL) of test compounds against various organisms was determined including:
(§3) S. aureus Smith ATCC 13709, S. pneumonlae SP030, S. pyogenes 3565, E. faecalis ATCC 29212, H. influenzae ATCC 49247, M. catarrhalis ATCC 23246.

Experiment [1] relates to M. catarrhalis ATCC 23246. The class given is cell-based, Moraxella catarrhalis. The protocol: as §1, §2, §3
Experiment [2] relates to erythromycin-resistant strains of Streptococcus pneumoniae. The class given is cell-based. On the procedure: as §1
Experiment [3] concerns erythromycin-resistant strains of Streptococcus pyogenes. In kind it is cell-based. The protocol:
as §1

Experiment [4] concerns S. aureus Smith ATCC 13709. In kind it is cell-based. The settings on record: Staphylococcus aureus, ATCC13709. The protocol: as §1, §2, §3
The test system of a further experiment is E. faecalis ATCC 29212. The class given is cell-based. The settings on record: Enterococcus faecalis, ATCC29212. The protocol: as §1, §2, §3
In a further experiment the test system is S. pyogenes 3565. The class given is cell-based. To be noted: Streptococcus pyogenes. On the procedure: as §1, §2, §3
The subject of another experiment is S. pneumoniae SP030. In kind it is cell-based. The settings on record: Streptococcus pneumoniae. The protocol: as §1, §2, §3

Where a name gives a salt, the structure may show the parent alone.

Turning to “4″-O-3-[2-(3-Carboxy-7-chloro-1-cyclopropyl-4-oxo-1,4-dihydro-quinolin-6-yloxy)-ethoxy]-propylcarbamoyl}-azithromycin (A) and 4″-O-{3-[2-(3-Carboxy-1-cyclopropyl-4-oxo-1,4-dihydro-quinolin-6-yloxy)-ethoxy]-propylcarbamoyl)-azithromycin (B) [Example 1]”, the MIC (with H. influenzae ATCC 49247; in experiment [1]) was not above 2 µg/mL throughout.

On to `CC[C@H]1OC(=O)[C@H](C)[C@@H](O[C@H]2C[C@@](C)(OC)[C@@H](OC(=O)NCCCOCCOc3ccc4c(c3)c(=O)c(C(=O)O)cn4C3CC3)[C@H](C)O2)[C@H](C)[C@@H](O[C@@H]2O[C@H](C)C[C@H](N(C)C)[C@H]2O)[C@](C)(O)C[C@@H](C)CN(C)[C@H](C)[C@@H](O)[C@]1(C)O` [Example 2], for which the MIC is not above 0.25 µg/mL in experiment [2]; not above 0.25 µg/mL in experiment [3]; not above 1 µg/mL in experiment [4]; not above 1 µg/mL in the experiment on E. faecalis ATCC 29212; not above 1 µg/mL against S. pyogenes 3565; not above 1 µg/mL in the experiment with S. pneumoniae SP030.

For the compound `CC[C@H]1OC(=O)[C@H](C)[C@@H](O[C@H]2C[C@@](C)(OC)[C@@H](OC(=O)NCCNCCOc3ccc4c(c3)c(=O)c(C(=O)O)cn4CC)[C@H](C)O2)[C@H](C)[C@@H](O[C@@H]2O[C@H](C)CC(N(C)C)[C@H]2O)[C@](C)(OC)C[C@@H](C)C(=O)[C@H](C)[C@@H](O)[C@]1(C)O` (stereo partly drawn) [Example 3, 4″-O-{2-[2-(3-Carboxy-1-ethyl-4-oxo-1,4-dihydro-quinolin-6-yloxy)-ethylamino]-ethylcarbamoyl}-6-O-methyl-erythromycin A monoformate salt], the MIC (in experiment [4]; in the experiment on E. faecalis ATCC 29212; in the experiment on S. pyogenes 3565; against S. pneumoniae SP030) was not above 1 µg/mL each time.
